Reference: patent publication US6545002B1 (University of Virginia Patent Foundation, priority 1999, dated 2003)
Where two headings read alike, the source gives them in different places.

Tests used:
[1] = molecular target: recombinant human A2A receptors (hA2A) (Homo sapiens, UniProt P29274); assay: Radioligand binding (125I-ZM241385) at recombinant human A2A receptors in HEK-293 cells
[2] = molecular target: T1, rat A2A receptors (rA2A) (Rattus norvegicus, UniProt P30543); assay: Displacement of [3H]CGS 21680 binding in rat striatal membranes; settings: for rA2A % displacement of specific binding: at 100,000 nM
T1 construct: to A2A receptors from rat striatal membranes was performed as described; from tissue; host or cells: rat striatal membranes
Description: (§1) Bruns, R. F. et al., Naunyn-Schmiedeberg's Arch. […] Binding of [^3H]R-N^6-phenylisopropyladenosine. Schwabe, U. et al., Naunyn-Schmiedeberg's Arch. […] (Dupont NEN, Boston, Mass.) to A2A receptors from rat striatal membranes was performed as described. […] All non-radioactive compounds were initially dissolved in DMSO, and diluted with buffer to the final concentration, where the amount of DMSO never exceeded 2%. Incubations were terminated by rapid filtration over Whatman GF/B filters, using a Brandell cell harvester (Brandell, Gaithersburg, Md.). The tubes were rinsed three times with 3 mL buffer each.
(§2) At least six different concentrations of competitor, spanning 3 orders of magnitude adjusted appropriately for the IC50 of each compound, were used. IC50 values, calculated with the nonlinear regression method implemented in (Graph-Pad Prism, San Diego, Calif.), were converted to apparent Ki values as described. Linden, J., J. Cycl. Nucl.

[3] = molecular target: T2, recombinant human A1 receptors (hA1) (Homo sapiens, UniProt P30542); assay: Radioligand binding ([3H]CPX) at recombinant human A1 receptors in HEK-293 cells
T2 sequence (P30542 1-326): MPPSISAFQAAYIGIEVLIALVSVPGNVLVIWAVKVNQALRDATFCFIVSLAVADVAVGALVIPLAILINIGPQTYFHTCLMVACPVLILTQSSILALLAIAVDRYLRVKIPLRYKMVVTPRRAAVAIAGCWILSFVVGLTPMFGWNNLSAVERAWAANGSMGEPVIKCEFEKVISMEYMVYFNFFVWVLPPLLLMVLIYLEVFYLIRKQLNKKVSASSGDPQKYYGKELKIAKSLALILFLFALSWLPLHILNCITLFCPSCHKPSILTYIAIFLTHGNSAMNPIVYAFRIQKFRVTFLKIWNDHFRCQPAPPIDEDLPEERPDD
Description: The potency of the xanthine derivatives at human A2B receptors was evaluated using two binding assays. […] In order to determine selectivity, the xanthines were evaluated using standard binding assays at A1, A2A, and A3 receptors.

[4] = molecular target: T3, rat A1 receptors (rA1) (Rattus norvegicus, UniProt P25099); assay: Displacement of [3H]R-PIA binding in rat brain (cerebral cortical) membranes
T3 construct: to A1 receptors from rat cerebral cortical membranes; from tissue; host or cells: rat cerebral cortical (brain) membranes
T3 sequence (P25099 1-326): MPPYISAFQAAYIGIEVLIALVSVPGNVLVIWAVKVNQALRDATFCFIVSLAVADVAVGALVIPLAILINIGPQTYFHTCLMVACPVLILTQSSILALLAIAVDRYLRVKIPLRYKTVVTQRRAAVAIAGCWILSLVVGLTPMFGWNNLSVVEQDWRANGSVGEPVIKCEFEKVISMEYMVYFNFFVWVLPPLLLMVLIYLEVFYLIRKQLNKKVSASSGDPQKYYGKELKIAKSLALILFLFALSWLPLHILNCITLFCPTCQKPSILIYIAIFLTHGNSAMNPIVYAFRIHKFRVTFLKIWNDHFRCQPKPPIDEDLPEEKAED
Description: as §1, §2

[5] = molecular target: T4, human A3 receptors (hA3) (Homo sapiens, UniProt P0DMS8); assay: Displacement of [125I]ABA binding at human A3 receptors expressed in HEK-293 cells
T4 construct: expressed in transfected cells; host or cells: HEK-293
T4 sequence (P0DMS8 1-318): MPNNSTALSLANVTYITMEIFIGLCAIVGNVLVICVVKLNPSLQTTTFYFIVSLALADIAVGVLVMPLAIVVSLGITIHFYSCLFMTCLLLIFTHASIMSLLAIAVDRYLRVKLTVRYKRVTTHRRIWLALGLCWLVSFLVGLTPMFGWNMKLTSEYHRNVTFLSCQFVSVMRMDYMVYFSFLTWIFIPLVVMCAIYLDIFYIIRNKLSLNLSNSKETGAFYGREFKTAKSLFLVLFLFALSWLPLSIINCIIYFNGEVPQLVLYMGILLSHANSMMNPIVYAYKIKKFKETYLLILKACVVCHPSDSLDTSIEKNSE

[6] = molecular target: T5, human A2B receptors (hA2B) (Homo sapiens, UniProt P29275); assay: Radioligand binding ([125I]ABOPX / [3H]ZM241385) at human A2B receptors expressed in HEK-293 cells; settings: for rA1/hA2B: Ki ratio
T5 construct: expressed in transfected cells; host or cells: HEK-293 (HEK-A2B, G418-selected)
T5 sequence (P29275 1-332): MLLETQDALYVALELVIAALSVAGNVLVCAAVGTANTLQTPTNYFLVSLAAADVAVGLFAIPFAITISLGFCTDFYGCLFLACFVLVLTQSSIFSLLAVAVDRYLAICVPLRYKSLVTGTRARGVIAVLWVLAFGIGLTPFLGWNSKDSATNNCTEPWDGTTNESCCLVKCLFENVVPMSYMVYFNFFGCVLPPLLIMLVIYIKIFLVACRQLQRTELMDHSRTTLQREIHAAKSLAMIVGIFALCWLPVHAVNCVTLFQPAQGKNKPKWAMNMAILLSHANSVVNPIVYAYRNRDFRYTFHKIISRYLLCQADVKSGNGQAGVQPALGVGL

[7] = read-out: hA1 Ki or IC50, Table 2
[8] = Table 2, read-out: rA1 Ki or IC50
[9] = Table 2, read-out: hA3 Ki or IC50
[10] = read-out: hA2A Ki or IC50, Table 2
[11] = Table 2, read-out: rA2A Ki or IC50
[12] = Table 2, read-out: hA2B Ki or IC50
[13] = Table 1, [3H]CGS 21680, rat striatal membranes, read-out: rA2A Ki or IC50
[14] = Table 1, [125I]ABOPX, HEK-293, read-out: hA2B Ki or IC50
[15] = read-out: hA1 Ki, values marked (h), Table 1, recombinant human A1, HEK 293
[16] = Table 1, [125I]ABA, HEK-293, read-out: hA3 Ki or IC50
[17] = Table 1, [3H]R-PIA, rat brain membranes, read-out: rA1 Ki or IC50
[18] = read-out: hA2A Ki, values marked (h)^a, Table 4, vs [125I]ZM241385, HEK-293
[19] = Table 4, footnote a: [125I]-ABOPX, read-out: hA2B Ki (value marked ^a) (converted)
[20] = Table 4, unmarked value, first of two binding assays, read-out: hA2B Ki
[21] = read-out: hA1 Ki, values marked (h)^a, Table 4, vs [3H]CPX, HEK-293
[22] = Table 4, footnote a: [125I]ABA, read-out: hA3 Ki (value marked ^a)

T1 sequence (P30543 whole entry): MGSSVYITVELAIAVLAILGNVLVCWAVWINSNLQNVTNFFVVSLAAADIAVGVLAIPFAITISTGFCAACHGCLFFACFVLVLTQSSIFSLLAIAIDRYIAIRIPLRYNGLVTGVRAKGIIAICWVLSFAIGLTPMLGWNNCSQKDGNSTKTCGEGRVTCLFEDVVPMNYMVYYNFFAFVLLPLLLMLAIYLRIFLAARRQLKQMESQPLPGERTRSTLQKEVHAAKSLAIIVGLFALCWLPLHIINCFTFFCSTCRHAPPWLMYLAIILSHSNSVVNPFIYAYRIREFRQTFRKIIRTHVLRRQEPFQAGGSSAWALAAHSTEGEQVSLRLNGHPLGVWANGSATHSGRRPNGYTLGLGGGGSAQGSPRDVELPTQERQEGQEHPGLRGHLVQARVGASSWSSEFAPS
Chain of recombinant human A2A receptors (hA2A) (P29274 whole entry): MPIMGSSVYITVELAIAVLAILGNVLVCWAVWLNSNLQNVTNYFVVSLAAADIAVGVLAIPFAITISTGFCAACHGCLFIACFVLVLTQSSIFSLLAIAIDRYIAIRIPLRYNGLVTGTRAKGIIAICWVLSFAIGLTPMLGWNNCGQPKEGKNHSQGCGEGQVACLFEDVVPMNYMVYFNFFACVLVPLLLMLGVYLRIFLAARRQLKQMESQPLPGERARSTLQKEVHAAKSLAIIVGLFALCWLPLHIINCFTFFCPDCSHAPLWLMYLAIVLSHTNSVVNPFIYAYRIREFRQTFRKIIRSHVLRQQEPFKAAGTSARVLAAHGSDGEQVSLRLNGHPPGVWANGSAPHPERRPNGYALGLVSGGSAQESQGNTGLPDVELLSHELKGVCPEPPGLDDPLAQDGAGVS

CCCn1c(=O)c2[nH]c(-c3ccc(OCC(=O)NCc4ccccc4)cc3)nc2n(CCC)c1=O [Compound 13, 8-[4-[(Benzylcarbamoylmethyl)oxy]phenyl]-1,3-di-(n-propyl)-xanthine]
Ki ([1]; read-out: hA2A Ki or IC50): 23.8 ± 5.71 nM
Ki ([2]; read-out: rA2A Ki or IC50): 25.9 ± 7.6 nM
Ki [3, 7]: 54.7 ± 21.2 nM
Ki [4, 8]: 5.02 ± 0.55 nM
Ki [5, 9]: 79.2 ± 17.8 nM
melting point: 268 °C

CCCn1c(=O)c2[nH]c(-c3ccc(OCC(=O)N(Cc4ccccc4)Cc4ccccc4)cc3)nc2n(CCC)c1=O [Compound 15, 8-[4-[(Dibenzylcarbamoylmethyl)oxy]phenyl]-1,3-di-(n-propyl)-xanthine]
Ki [1, 10]: 642 ± 198 nM
Ki [2, 11]: 2750 nM
Ki [6, 12]: 9.88 ± 1.05 nM
Ki [3, 7]: 690 ± 98 nM
Ki [4, 8]: 167 ± 49 nM
Ki [5, 9]: 284 ± 14 nM
melting point: 230 °C

CCCn1c(=O)c2[nH]c(-c3ccc(C=CC(=O)O)cc3)nc2n(CCC)c1=O [Compound 8]
Ki ([1]; read-out: hA2A Ki, values marked (h), Table 1, recombinant human A2A, HEK 293): 190 ± 71 nM
Ki [2, 13]: 800 nM
Ki [6, 14]: 60 ± 2 nM
Ki [3, 15]: 140 ± 3 nM
Ki [5, 16]: 30 ± 14 nM

O=C(O)C=Cc1ccc(-c2nc3c([nH]2)c(=O)n(CC2CCCCC2)c(=O)n3CC2CCCCC2)cc1 [Compound 9]
Ki [6, 14]: 199 ± 52 nM
Ki [3, 15]: 4890 nM
Ki [4, 17]: 602 ± 24 nM
Ki [5, 16]: 922 ± 399 nM

CCCn1c(=O)c2[nH]c(-c3ccc(OCC(=O)Nc4ccc([N+](=O)[O-])cc4)cc3)nc2n(CCC)c1=O [Compound 28, 8-[4-[((4-Nitro)phenylcarbamoylmethyl)oxy]phenyl]-1,3-di-(n-propyl)xanthine]
Ki [1, 10]: 70 ± 10.7 nM
Ki [2, 11]: 1180 nM
selectivity for human A2B versus human A1 receptors [6]: 35 fold
Ki ([6]; read-out: Ki value at human A2B receptors): 1.52 nM
Ki [3, 7]: 57 ± 3.1 nM
Ki [4, 8]: 13.1 ± 3.9 nM
Ki [5, 9]: 138 ± 17.1 nM
melting point: 307 °C

CCCn1c(=O)c2[nH]c(-c3ccc(OCC(=O)Nc4cccc(C(C)=O)c4)cc3)nc2n(CCC)c1=O [Compound 19, 8-[4-[((3-Acetylphenyl)carbamoylmethyl)oxy]phenyl]-1,3-di-(n-propyl)xanthine]
Ki [1, 10]: 58.9 ± 7.1 nM
Ki [2, 11]: 949 ± 394 nM
Ki [6, 12]: 4.92 ± 0.55 nM
Ki [3, 7]: 234 ± 28 nM
Ki [4, 8]: 439 ± 111 nM
Ki [5, 9]: 352 ± 69 nM
melting point: 269 to 270 °C

CCCn1c(=O)c2[nH]c(-c3ccc(OCC(=O)Nc4ccccc4)cc3)nc2n(CCC)c1=O [Compound 12, 8-[4-[(Phenylcarbamoylmethyl)oxy]phenyl]-1,3-di-(n-propyl)-xanthine]
Ki [1, 10]: 25.8 ± 4.5 nM
Ki [2, 11]: 45.6 ± 1.4 nM
Ki [6, 12]: 1.48 ± 0.63 nM
Ki [3, 7]: 40.1 ± 5.1 nM
Ki [5, 9]: 137 ± 54 nM
melting point: 301 to 302 °C

CCCn1c(=O)[nH]c(=O)c2[nH]c(-c3ccc(OCC(=O)NN4C(=O)C(C)=C(C)C4=O)cc3)nc21 [Compound 48]
Ki [1, 18]: 5480 nM
rA2A % displacement of specific binding ([2]; Table 4): 36 ± 4%
rA1/hA2B ([6]; Table 4): 2.0
Ki [6, 19]: 1900 nM
Ki [6, 20]: 1800 nM
Ki [3, 21]: 8080 nM
Ki ([4]; Table 4, read-out: rA1 Ki): 3590 ± 920 nM
Ki [5, 22]: 14200 nM

CCCn1c(=O)c2[nH]c(-c3ccc(OCC(=O)NNC(C)=O)cc3)nc2n(CCC)c1=O [Compound 41, 8-[4-[(Carboxymethyl)oxy]phenyl]-1,3-di-(n-propyl)xanthine N-Acetylhydrazide]
Ki [1, 18]: 186 ± 9 nM
Ki ([2]; Table 4, read-out: rA2A Ki): 227 ± 64 nM
rA1/hA2B ([6]; Table 4): 0.10
Ki [6, 19]: 33.8 ± 13.7 nM
Ki [6, 20]: 65.4 ± 6.5 nM
Ki [3, 21]: 125 ± 14 nM
Ki ([4]; Table 4, read-out: rA1 Ki): 6.51 ± 1.24 nM
Ki [5, 22]: 30.9 ± 8.2 nM

CCCn1c(=O)c2[nH]c(-c3ccc(OCC(=O)Nc4ccc(C(C)=O)cc4)cc3)nc2n(CCC)c1=O [Compound 20, 8-[4-[((4-Acetylphenyl)carbamoylmethyl)oxy]phenyl]-1,3-di-(n-propyl)xanthine]
Ki [1, 10]: 112 ± 37 nM
Ki [2, 11]: 548 ± 183 nM
selectivity for human A2B versus rat A1 receptors [6]: 27 fold
Ki [6, 12]: 1.39 ± 0.3 nM
Ki [3, 7]: 157 ± 8 nM
Ki [4, 8]: 37.6 ± 4 nM
Ki [5, 9]: 230 ± 23 nM

CCCn1c(=O)c2[nH]c(-c3ccc(OCC(=O)ON4C(=O)CCC4=O)cc3)nc2n(CCC)c1=O [Compound 4b]
Ki [2, 13]: 127 nM
Ki [6, 14]: 9.75 ± 4.8 nM
Ki [4, 17]: 153 nM
Ki [5, 16]: 227 nM

CCCn1c(=O)c2[nH]c(-c3ccc(OCC(=O)NN4C(=O)c5ccccc5C4=O)cc3)nc2n(CCC)c1=O [Compound 57, 8-[4-[(Carboxymethyl)oxy]phenyl]-1,3-di-(n-propyl)xanthine N,N-Phthaloylhydrazide]
Ki [1, 18]: 359 nM
Ki ([2]; Table 4, read-out: rA2A Ki): 392 ± 117 nM
rA1/hA2B ([6]; Table 4): 0.41
Ki [6, 19]: 46.4 nM
Ki [6, 20]: 64.4 ± 0.8 nM
Ki [3, 21]: 210 nM
Ki ([4]; Table 4, read-out: rA1 Ki): 26.3 ± 2.3 nM
Ki [5, 22]: 147 ± 21 nM

O=C(O)COc1ccc(-c2nc3c([nH]2)c(=O)n(Cc2ccccc2)c(=O)n3Cc2ccccc2)cc1 [Compound 7, 8-[4-[(Carboxymethyl)oxy]phenyl]-1,3-dibenzyl-xanthine]
rA2A % displacement of specific binding ([2]; Table 1): 25 ± 3%
Ki [6, 14]: 1760 nM
Ki [4, 17]: 679 ± 190 nM
melting point: > 310 °C

CCCn1c(=O)c2[nH]c(-c3ccc(OCC(=O)Nc4ccc(C(=O)O)cc4)cc3)nc2n(CCC)c1=O [Compound 24, 8-[4-[((4-Carboxy)phenylcarbamoylmethyl)oxy]phenyl]-1,3-di-(n-propyl)xanthine]
Ki [2, 11]: 220 ± 79 nM
Ki [6, 12]: 16.1 ± 4.7 nM
Ki [4, 8]: 145 ± 28 nM
melting point: > 310 °C

CCCn1c(=O)c2[nH]c(-c3ccc(/C=C/C(=O)Nc4ccccc4C(C)=O)cc3)nc2n(CCC)c1=O [Compound 35, 8-[4(2-(2-Acetylphenyl)carbamoyl-trans-vinyl)phenyl]-1,3-di-(n-propyl)xanthine]
Ki ([2]; Table 3, read-out: rA2A Ki or IC50): 143 ± 50 nM
Ki ([6]; Table 3, read-out: hA2B Ki or IC50): 3.65 ± 0.98 nM
Ki ([4]; Table 3, read-out: rA1 Ki or IC50): 7.67 ± 2.2 nM
Ki ([5]; Table 3, read-out: hA3 Ki or IC50): 121 ± 138 nM
melting point: 281 to 283 °C
